Legend:
[1] = biological target: T1, human orexin-2 receptor (Homo sapiens, UniProt O43614); assay: Intracellular calcium measurement (FLIPR Tetra), orexin receptor antagonistic activity, OX2; type: cell-based; conditions: CHO cells expressing human orexin-2 receptor, 3 nM orexin-A
T1 construct: expressed in transfected cells; host or cells: CHO (Chinese hamster ovary) cells, kept under G418 selection
T1 sequence (O43614 1-444): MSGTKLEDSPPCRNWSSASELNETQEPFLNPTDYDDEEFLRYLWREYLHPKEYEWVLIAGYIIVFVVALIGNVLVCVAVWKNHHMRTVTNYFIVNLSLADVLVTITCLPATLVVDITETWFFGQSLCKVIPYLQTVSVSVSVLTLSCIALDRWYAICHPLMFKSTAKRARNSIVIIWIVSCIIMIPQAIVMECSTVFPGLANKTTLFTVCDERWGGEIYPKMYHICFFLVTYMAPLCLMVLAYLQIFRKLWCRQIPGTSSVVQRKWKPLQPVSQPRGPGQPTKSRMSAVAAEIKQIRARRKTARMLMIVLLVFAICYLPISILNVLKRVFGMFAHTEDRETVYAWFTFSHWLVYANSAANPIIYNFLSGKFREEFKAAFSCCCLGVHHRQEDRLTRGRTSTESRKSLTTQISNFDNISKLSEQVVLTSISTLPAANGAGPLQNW
Method in brief: (§1)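 Recombinant CHO cells expressing human OX1 or OX2, loaded with fluo-4 AM plus probenecid, were preincubated with antagonist 10 min, then stimulated with 3 nM human orexin-A. Peak fluorescence was compared with vehicle; IC50 derived, sometimes normalized to an on-plate reference compound; two pipetting/cell-splitting conditions were used.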

[2] = biological target: T2, human orexin-1 receptor (Homo sapiens, UniProt O43613); assay: Intracellular calcium measurement (FLIPR Tetra), orexin receptor antagonistic activity, OX1; type: cell-based; conditions: CHO cells expressing human orexin-1 receptor, 3 nM orexin-A
T2 construct: expressed in transfected cells; host or cells: CHO (Chinese hamster ovary) cells, kept under G418 selection
T2 sequence (O43613 1-425): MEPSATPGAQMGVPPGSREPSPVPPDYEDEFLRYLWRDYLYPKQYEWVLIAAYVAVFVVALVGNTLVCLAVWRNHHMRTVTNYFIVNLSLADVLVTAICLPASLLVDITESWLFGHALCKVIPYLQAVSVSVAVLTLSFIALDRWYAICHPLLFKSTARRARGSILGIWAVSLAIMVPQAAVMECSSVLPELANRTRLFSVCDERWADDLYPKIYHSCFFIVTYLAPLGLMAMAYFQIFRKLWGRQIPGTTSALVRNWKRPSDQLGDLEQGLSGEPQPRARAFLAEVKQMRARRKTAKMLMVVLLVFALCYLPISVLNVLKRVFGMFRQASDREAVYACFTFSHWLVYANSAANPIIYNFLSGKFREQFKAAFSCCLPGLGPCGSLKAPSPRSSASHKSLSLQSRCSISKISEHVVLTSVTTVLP
Method in brief: as §1

[3] = conditions B, normalized (*) using IC50 of on-plate reference compound

Structure (SMILES)	IC50 [1, 3]	IC50 [2, 3]	other results
COc1ccc(-c2cccnc2C(=O)N(CCc2c[nH]c3ccc(F)cc23)CC(F)F)cn1 [Example 317, 6′-Methoxy-[3,3′]bipyridinyl-2-carboxylic acid (2,2-difluoro-ethyl)-[2-(5-fluoro-1H-indol-3-yl)-ethyl]-amide]	162 nM	760 nM	
Cc1ccc(-c2scnc2C(=O)N(CCc2c[nH]c3ccc(F)cc23)CC2CC2)cc1C [Example 274, 5-(3,4-Dimethyl-phenyl)-thiazole-4-carboxylic acid cyclopropylmethyl-[2-(5-fluoro-1H-indol-3-yl)-ethyl]-amide]	66 nM	155 nM	
Cc1ccc(-c2nccnc2C(=O)N(CCc2nc3cc(C)c(C)cc3[nH]2)CC2CC2)cc1C [Example 374, 3-(3,4-Dimethyl-phenyl)-pyrazine-2-carboxylic acid cyclopropylmethyl-[2-(5,6-dimethyl-1H-benzoimidazol-2-yl)-ethyl]-amide]	35 nM	102 nM	
Cc1nc(C(=O)N(CCc2c[nH]c3ccc(F)cc23)CC2CC2)c(-c2ccc3cc[nH]c3c2)s1 [Example 430, 5-(1H-Indol-6-yl)-2-methyl-thiazole-4-carboxylic acid cyclopropylmethyl-[2-(5-fluoro-1H-indol-3-yl)-ethyl]-amide]	21 nM	104 nM	
Cc1cccc(-c2sc(N)nc2C(=O)N(CCc2ccc3ccccc3c2)CC2CC2)c1 [Example 167, 2-Amino-5-m-tolyl-thiazole-4-carboxylic acid cyclopropylmethyl-(2-naphthalen-2-yl-ethyl)-amide]			IC50 ([1]; conditions B): 45 nM; IC50 ([2]; conditions B): 171 nM
COc1ncc(-c2nccnc2C(=O)N(CCc2c[nH]c3c(C)cccc23)CC2CC2)cn1 [Example 439, 3-(2-Methoxy-pyrimidin-5-yl)-pyrazine-2-carboxylic acid cyclopropylmethyl-[2-(7-methyl-1H-indol-3-yl)-ethyl]-amide]	28 nM	461 nM	
COc1ccc(-c2nccnc2C(=O)N(CCc2c[nH]c3c(C)cccc23)CC2CC2)cn1 [Example 437, 3-(6-Methoxy-pyridin-3-yl)-pyrazine-2-carboxylic acid cyclopropylmethyl-[2-(7-methyl-1H-indol-3-yl)-ethyl]-amide]	3 nM	43 nM	
COCCN(CCc1ccc(OC)c(OC)c1)C(=O)c1nc(N)sc1-c1cccc(C)c1 [Example 128, 2-Amino-5-m-tolyl-thiazole-4-carboxylic acid [2-(3,4-dimethoxy-phenyl)-ethyl]-(2-methoxy-ethyl)-amide]			IC50 ([1]; conditions B): 4 nM; IC50 ([2]; conditions B): 71 nM
CCc1nc(I)cn1CCN(CC1CC1)C(=O)c1nc(N)sc1-c1cccc(C)c1 [Example 178, 2-Amino-5-m-tolyl-thiazole-4-carboxylic acid cyclopropylmethyl-[2-(2-ethyl-4-iodo-imidazol-1-yl)-ethyl]-amide]			IC50 ([1]; conditions B): 943 nM; IC50 ([2]; conditions B): 739 nM
Cc1cncc(-c2cccnc2C(=O)N(CCc2c[nH]c3ccc(F)cc23)CC2CC2)c1 [Example 402, 5′-Methyl-[3,3′]bipyridinyl-2-carboxylic acid cyclopropylmethyl-[2-(5-fluoro-1H-indol-3-yl)-ethyl]-amide]	72 nM	700 nM	
COc1ccc(C(O)CN(CC2CC2)C(=O)c2nccnc2-c2ccccc2)cc1OC (stereo not shown) [Example 99, 3-Phenyl-pyrazine-2-carboxylic acid cyclopropylmethyl-[2-(3,4-dimethoxy-phenyl)-2-hydroxy-ethyl]-amide]			IC50 ([1]; conditions A): 41 nM; IC50 ([2]; conditions A): > 10000 nM
